How the values were obtained:
ovarian tissue strips = test: Cryopreservation of ovarian tissue strips: intact follicles; settings: liquid nitrogen 14 days, cultured 14 days
Procedure: Ovar ectomy was performed in female sheep; resected tissues were cut into 60 ovarian tissue strips. The ovarian strips were either cultured directly (n=4) or prepared with a usual solution for vitrification (VS group; Vitrification Kit, Sage, USA) or incubated with nitrated PLs (NPL group). For this purpose, the tissue strips were bathed in an equibrilation solution (ART-8025-A) which consisted of MOPS-buffered amino acids and gentamicin sulfate (10 mg/l), and 7.5% (v/v) of each DMSO and ethylene glycol and 12 mg/ml human serum albumin for 30 minutes. Thereafter the strips of the VS group were placed in the vitrification solution (ART-8025-B), which is a MOPS-buffered solution containing amino acids and gentamicin sulfate, that contain 15% (v/v) each DMSO and ethylenglycol, 12 mg/ml human albumin and 0.6 M sucrose. The strips of the NPL group were placed in a solution containing 25% (v/v) nitrated PL SNOPC or PNLPC in a PBS-buffered 1% DMSO solution containing 5% human albumin for 60 minutes. The treated tissue strips were then immersed into liquid nitrogen and kept here for 14 days. Then removal and warming of the tissue pieces was performed in AIM-V medium (Gibco, Invitrogen) in a sterile culture dish, first up to 5° C. within 20 minutes, then heated further in a water bath up to 37° C., within the following 60 minutes. The culture medium was replaced and specimens cultured for 14 days. After this, the tissue pieces were fixed, embedded in paraffin and cut, followed by histological examination. […] The total number of intact follicles in the control group was taken as a reference to the number of follicles in the cryopreserved groups.
The culture medium has been exchanged by every 2nd day; samples for hormone analysis were taken and frozen at that time. Determination of 17 β-estradiol and progesterone were performed with a radio-immuno assay (diagnostic systems laboratories, USA).

[1] = tested on: human umbilical venous endothelial cells (HUVEC); test: Endothelial cell homing on coated cobalt-chromium metal grids; type: cell-based; settings: days 3, 7 and 14
Procedure: To investigate the cell homing of endothelial cells onto phospholipid-coated artificial surfaces, metal grids with a cobalt-chromium alloy such as has been described in example 2 were coated. Coatings were performed with nitro-carboxylic acid-containing phosphatidylcholine according to the examples N2-N6 and O6. These were special product mixtures of different esterified 1,2-di(nitro linoleoyl)-sn-glycero-3-phosphatidylcholines (N2), from different esterified 1,2-di(nitro arachidonoyl)-sn-glycero-3-phosphatidylcholines (N3), from different esterified 1,2-di(nitroarachidonoyl)-sn-glycero-3-phosphatidylcholines (N4), different esterified 1,2-di(nitro-γ-linolenoyl)-sn-glycero-3-phosphatidylcholines (N5) or different esterified 1,2-di(nitro-DHA)-sn-glycero-3-phosphatidylcholines (N6) and mixture of 1-palmitoyl-2-(10-hydroxy-9-nitro-α-linolenoyl)-sn-3-glycero-phosphocholine and 1-palmitoyl-2-(9-hydroxy-10-nitro-α-linolenoyl)-sn-3-glycero-phosphocholine (06). Uncoated metal grids served as controls. The grids were placed in a culture dish containing a gel matrix on which human umbilical venous endothelial cells (HUVEC) were grown to confluence. The culture media consisted of 5% FCS, and was changed every second day. Cultivation was performed according to standard procedures. The culture dishes were carefully washed superficially several times after 3, 7, and 14 days with saline. […]

sciatic nerve = test: Viability of cryopreserved nerve grafts (Annexin-V staining, FACS); type: cell-based, rats; settings: 100 mmolar solution 1 hour; −30° C. 72 hours
Procedure: The sciatic nerve was prepared and sectured in anesthetized rats. The nerve pieces were freed from connective tissue and divided into 3 parts. Specimens were placed in culture DMEM medium containing low a concentration of glucose (1 g/L) with L-glutamine (PAA, Pasching Austria) for 24 hours. […] Nerve specimens from the same animals that received no pretreatment served as controls. After incubation, the specimens were cultured for 24 hours. In a further control group, specimens were cryopreserved without any pretreatment. The specimens were covered with a sterile gauze pad moistened with culture medium. Thereafter the temperature was gradually cooled to −30° C. After 72 hours, the nerve pieces were gradually rewarmed to 37° C. After this, renewed culturing was done for 48 hours. The nerve pieces were dissected enzymatically then (collagenase A and D, Roche, Mannheim, Germany) followed by a mechanical separation through multiple uptake and release in a glass pipette. The isolated cells were washed and marked with a living/death staining (Annexin-V-Fluos staining Kit, Roche Diagnostics, Mannheim, Germany) and quantified using FACS analysis. The number of living cells identified was set in relation to the total cells count.

[2] = tested on: HeLa, HUVEC and L929 fibroblast; test: cells; type: cell-based; settings: tested concentrations 10 μmol to 1 mmol; EC50 could not be calculated
Procedure: (§1) Physiologically occurring phospholipids can be taken up by virtually all cell lines in large quantities. It is known that phospholipids that contain non-physiologically occurring fatty acid residues can cause cell lyses or death. Three cell lines (HeLa, HUVEC and L929 fibroblast) were cultured in a suitable culture medium of 5% FCS at 37° C. and 5% CO2 concentrations to a subconfluent concentration of 1.5×10^5 cells.
SOPC, DOPC, POPC, ONOPC, PNLPC, and the free fatty acids of OA, LA, NOOA, and NOLA were dissolved in 0.5% DMSO. […] Cell cultures were incubated for 24 h and 48 h. Thereafter, the culture medium was removed and the cells washed twice. Following this, cells suspensions were given in four vials to perform the following analysis:
For the determination of viability, phenol red was added to the suspended cells. After 4 h, the medium was renewed and 10 μl of the MTT solution was added. The cells were cultured for 4 hours, and then a 10% SDS solution was pipetted. After 24 h, absorption of formazan crystals was measured at 500 nm using a power wave X (bio-tek instruments, Inc., USA). For the quantitative comparison of toxicity, the EC50 was determined.

[3] = tested on: HeLa, HUVEC and L929 fibroblast; test: Volumetric measurement of cells (Coulter counter); type: cell-based; settings: time-dependent increase after incubation
Procedure: as §1
(§2) SOPC, DOPC, POPC, ONOPC, PNLPC, and the free fatty acids of OA, LA, NOOA, and NOLA were dissolved in 0.5% DMSO. Experiments were performed also with nitro-carboxylic acid-containing phospholipids according to examples N15-N20, G, O3, O5, P2, P5, P8, P9, P11 and Q. PL prepared as aqueous suspensions were added the culture flasks in order to achieve PL concentrations in the culture medium from 10 μmol to 1 mmol. Cell cultures were incubated for 24 h and 48 h. Thereafter, the culture medium was removed and the cells washed twice. Following this, cells suspensions were given in four vials to perform the following analysis:
Volumetric measurement of cells was done in a Histopenz (Sigma) solution with an effective NaCl concentration of 0.9% (approximately 290 mOsm) heated to 37° C. in which the cells were suspended; thereafter the solution was sonified for 2 minutes. Measurements were done using a Coulter counter Z2.

[4] = Transisomerization of unsaturated fatty acids in coatings on balloon catheters (FTIR); type: physicochemical
Excerpt: The natural phospholipids POPC and SLPE, as well as the analogous nitrated phospholipids as shown in example C(PNOPC) and […]), as well as the phospholipids according to examples […], and S as a mono substance and as a combination of the native phospholipids and the corresponding nitro-carboxylic acid (s)-containing phospholipids mixed in a ratio of 1:1 were used for this investigation. Balloon catheters were coated by means of the Langmuir-Schaefer procedure where the balloon segment was aligned longitudinally and coaxial to the solution surface, dipping into the liquid for approx. 1 mm over the entire length. Then the catheter was slowly rotated around its axis 5 times. […] The solution was cooled and given to the coating solution then. In case of incomplete dissolution of the phospholipids or if they separated when cooled, DMSO was added at a concentration of up to 20 vol.-%, preferably up to 10 vol.-%. After coating, the catheters were vacuum dried for 8 hours in order to remove residual solvent. The abrasion or loss of coating layers was determined by weighing the catheter before and after coating as well as after the mechanical stability test in the tubing system as described above using a high precision balance. In order to examine the long-term stability of the coating, catheters coated with phospholipids were sealed with polyethylene glycol 1000 (Roth, Germany). For that purpose PEG 1000 was melted and mixed with a 10% ethanol solution at 50° C. A portion of the phospholipid-coated balloon catheter was coated by means of dip-coating in this PEG solution at 50° C., and dried thereafter for 8 hours. Stability of cis-conformity of unsaturated fatty acids of the phospholipids investigated was determined after heat treatment at 60° C. for three hours in a heating cabinet. After 24 hours and after 2 months the phospholipids coated on the balloon surface were detached and analyzed. Detachment was carried out in 50 ml of a chloroform:methanol mixture (3:1, v: v). A 10 μl aliquot was used for a FTIR spectroscopy. For this purpose the samples were dropped on a ZnSe ATR crystal and then the solvent was evaporated. Degree of transisomerization was determined using the integral of intensity of proton resonance in comparison to that measured from a cis configuration of the reference substances. Measurements were performed 24 hours after coating, heat treatment and after 2 months of storage at 25° C. under sterile room air conditions.

[5] = tested on: HeLa, HUVEC and L929 fibroblast; test: Cell viability with the live/dead assay; type: cell-based
Procedure: as §1, §2
Studies of cell viability were carried out with the live/dead assay (Molecular Probes). For this purpose, the cells were washed twice with PBS solution and then seeded into a culture medium. Incubation with the staining solution (in 0.1% DMSO) was carried out over 30 minutes in the dark. The viability analyses were performed using fluorescence microscopy.

[6] = target: Glycophorin A (GpA) peptides (Homo sapiens, UniProt P02724); settings: 10-50% (mol/mol) admixed to DSPC vesicles; versus native phospholipids
Sequence of Glycophorin A (GpA) peptides (P02724 92-114 limits assumed, species assumed): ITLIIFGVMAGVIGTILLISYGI
Procedure: The change of the Frster resonance energy transfer (FRET) of fluorescence-labelled peptides with α helical trans-membrane structure in a double lipid layer can be used for determination of the concentration of monomeric and dimeric trans-membrane helices and for quantitative determination of helix-helix interactions.
FRET measurements were carried out with fluorescence-marked Glycophorin A (GpA) peptides. The transmembrane GpA forms dimers, whereby the energy transfer can be measured. 5-carboxyfluorescein and tetramethyl-6-carboxyrhodamine were used as chromophores.
Degree of dimerization of the model protein was measured in a direct comparison between native phospholipids and the corresponding phospholipids with a nitrated alkyl chain for the given concentrations of phospholipids (10-50%, mol/mol) admixed to the DSPC vesicles.
For determination of the dimerization, the peptides of FL GpAwt and TAMRA GpAwt were weighed and dissolved in TFE. The measurements were carried out on a fluorescence spectrometer of type Aminco Bowman series 2 (Thermo Spectronic).

1,2-di-(nitrolinoleoyl)-sn-glycero-3-phosphatidylcholines [Example N2]
rate of intact follicles relative to the control group (ovarian tissue strips): 94%
endothelial cell coverage and growth on coated struts [1]: slight tendency for a stronger growth of cells
proportion of living cells relative to non-frozen control (sciatic nerve): 79%

CCCCCCCC/C=C\CCCCCCCC(=O)O[C@H](COC(=O)CCCCCCCCCCCCCCC)COP(=O)([O-])OCC[N+](C)(C)C [POPC, 1-Palmitoyl-2-oleoyl-sn-glycero-3-PC, reference compound]
viability as quantified by the MTT assay [2]: only slightly decreased
cell volume (increase in size to) [3]: 160%
proportion of trans-fatty acids ([4]; after heat treatment (60° C., three hours)): 80%
degree of transisomerization ([4]; coatings after 2 months): 95%
degree of transisomerization ([4]; top coating with PEG, after 2 month): 86%
viability according to the live/dead staining [5]: high rate of viability

CCCCC/C=C\C/C=C(\CCCCCCCC(=O)O[C@H](COC(=O)CCCCCCCCCCCCCCCCC)COP(=O)([O-])OCC[N+](C)(C)C)[N+](=O)[O-] [Example P13, 1-stearoyl-2-(E-9-nitrolinoleoyl)-sn-3-glycerophosphocholine]
degree of dimerization of the model membrane protein [6]: significantly greater reduction of dimerization

1,2-di-(nitro-DHA)-sn-glycero-3-phosphatidylcholines [Example N6]
rate of intact follicles relative to the control group (ovarian tissue strips): 92%
endothelial cell coverage and growth on coated struts [1]: slight tendency for a stronger growth of cells
proportion of living cells relative to non-frozen control (sciatic nerve): 72%
